ChEMBL document CHEMBL1125139, “Antitumor agents. 113. New 4 beta-arylamino derivatives of 4'-O-demethylepipodophyllotoxin and related compounds as potent inhibitors of human DNA topoisomerase II” (1990)

Legend:
Nucleic Acid = experiment: Inhibition of cellular protein-DNA complex formation at 10 uM; assay type: functional; conditions: Homo sapiens
[1] = Concentration for 50% reduction in cell number after 3-day incubation; assay type: functional; conditions: Homo sapiens, 72 h; read-out: ID50 (the source's name)
[2] = target: DNA topoisomerase II (Homo sapiens) (UniProt P11388+Q02880); experiment: Inhibitory activity against human DNA topoisomerase II; assay type: protein assay

SMILES | Formation (Nucleic Acid) [%] | IC50 [1] [µM] | ID50 [2] [µM]
COc1cc([C@@H]2c3cc4c(cc3[C@@H](Nc3ccc(Oc5ccccc5)cc3)[C@H]3COC(=O)[C@H]23)OCO4)cc(OC)c1O | 97 | 1 | 25
COc1cc([C@@H]2c3cc4c(cc3[C@@H](Nc3ccc(F)cc3)[C@H]3COC(=O)[C@H]23)OCO4)cc(OC)c1O | 213 | 0.24 | 5
COc1cc([C@@H]2c3cc4c(cc3[C@@H](Nc3cccc(CO)c3)[C@H]3COC(=O)[C@H]23)OCO4)cc(OC)c1O | 235 | < 1 | 25
COC(=O)c1ccc(N[C@@H]2c3cc4c(cc3[C@@H](c3cc(OC)c(O)c(OC)c3)[C@H]3C(=O)OC[C@@H]32)OCO4)cc1O | 129 | 5.8 | 50
COc1ccc(N[C@@H]2c3cc4c(cc3[C@@H](c3cc(OC)c(O)c(OC)c3)[C@H]3C(=O)OC[C@@H]32)OCO4)cc1OC | 180 | < 1 | 25
COc1cc([C@@H]2c3cc4c(cc3[C@@H](Nc3ccc(N)cc3)[C@H]3COC(=O)[C@H]23)OCO4)cc(OC)c1O | 330 | 0.8 | 5
COc1cc([C@@H]2c3cc4c(cc3[C@@H](Nc3cc(N)ccc3O)[C@H]3COC(=O)[C@H]23)OCO4)cc(OC)c1O | 11 | 3.3 | > 100
COc1cc([C@@H]2c3cc4c(cc3[C@@H](Nc3cccnc3)[C@H]3COC(=O)[C@H]23)OCO4)cc(OC)c1O | 148 | 0.24 | 50
COc1cc([C@@H]2c3cc4c(cc3[C@@H](Nc3cccc(C#N)c3)[C@H]3COC(=O)[C@H]23)OCO4)cc(OC)c1O | 137 | 0.69 | 25
COC(=O)c1cccc(N[C@@H]2c3cc4c(cc3[C@@H](c3cc(OC)c(O)c(OC)c3)[C@H]3C(=O)OC[C@@H]32)OCO4)c1 | 249 | 2.7 | 50
COc1cc([C@@H]2c3cc4c(cc3[C@@H](Nc3cc(OC)c(OC)c(OC)c3)[C@H]3COC(=O)[C@H]23)OCO4)cc(OC)c1O | 47 | 0.63 | > 100
COc1cc([C@@H]2c3cc4c(cc3[C@@H](Nc3cccc([N+](=O)[O-])c3)[C@H]3COC(=O)[C@H]23)OCO4)cc(OC)c1O | 230 | 1 | 50
COc1cc([C@@H]2c3cc4c(cc3[C@@H](Oc3ccc(O)cc3)[C@H]3COC(=O)[C@H]23)OCO4)cc(OC)c1O | 34 | < 1 | 50
COc1cc([C@@H]2c3cc4c(cc3[C@@H](Nc3ccc5c(c3)OCCO5)[C@H]3COC(=O)[C@H]23)OCO4)cc(OC)c1O | 279 | 0.68 | 10
COc1cc([C@@H]2c3cc4c(cc3[C@@H](Nc3cc([N+](=O)[O-])ccc3O)[C@H]3COC(=O)[C@H]23)OCO4)cc(OC)c1O | 15 | 1 | > 100
COc1cc([C@@H]2c3cc4c(cc3[C@@H](Nc3ccc5c(c3)OCO5)[C@H]3COC(=O)[C@H]23)OCO4)cc(OC)c1O | 164 | < 1 | 50
COc1cc([C@@H]2c3cc4c(cc3[C@@H](Nc3ccc(C#N)cc3)[C@H]3COC(=O)[C@H]23)OCO4)cc(OC)c1O | 211 | 0.64 | 10
COc1cc([C@@H]2c3cc4c(cc3[C@@H](Nc3ccccn3)[C@H]3COC(=O)[C@H]23)OCO4)cc(OC)c1O | 97 | 0.71 | 50

SMILES | Formation (Nucleic Acid) [%] | IC50 [1] [µM] | ID50 [2] [µM]
COc1cc([C@@H]2c3cc4c(cc3[C@@H](Nc3cccc(O)c3)[C@H]3COC(=O)[C@H]23)OCO4)cc(OC)c1O | 290 | 0.45 | 25
COc1cc([C@@H]2c3cc4c(cc3[C@@H](Sc3ccc(O)cc3)[C@H]3COC(=O)[C@H]23)OCO4)cc(OC)c1O | 10 | < 1 | > 100
COC(=O)c1cc(N[C@@H]2c3cc4c(cc3[C@@H](c3cc(OC)c(O)c(OC)c3)[C@H]3C(=O)OC[C@@H]32)OCO4)ccc1O | 83 | 1 | 50
COc1cc([C@@H]2c3cc4c(cc3[C@@H](Nc3ccc([N+](=O)[O-])cc3)[C@H]3COC(=O)[C@H]23)OCO4)cc(OC)c1O | 323 | 0.49 | 10
COc1cc([C@@H]2c3cc4c(cc3[C@@H](O[C@@H]3O[C@@H]5CO[C@@H](C)O[C@H]5[C@H](O)[C@H]3O)[C@H]3COC(=O)[C@H]23)OCO4)cc(OC)c1O [ETOPOSIDE] | 100 | 0.2 | –
COC(=O)c1cc(N[C@@H]2c3cc4c(cc3[C@@H](c3cc(OC)c(O)c(OC)c3)[C@H]3C(=O)OC[C@@H]32)OCO4)cc(C(=O)OC)c1 | 50 | < 1 | 25
COc1cc([C@@H]2c3cc4c(cc3[C@@H](Nc3cnc5ccccc5c3)[C@H]3COC(=O)[C@H]23)OCO4)cc(OC)c1O | 123 | < 1 | 50
COc1cc([C@@H]2c3cc4c(cc3[C@@H](Nc3ccccc3)[C@H]3COC(=O)[C@H]23)OCO4)cc(OC)c1O | 243 | 0.71 | 25
COc1cc([C@@H]2c3cc4c(cc3[C@@H](Nc3cccc(N)c3)[C@H]3COC(=O)[C@H]23)OCO4)cc(OC)c1O | 140 | 4 | 25
COc1cc([C@@H]2c3cc4c(cc3[C@@H](Oc3ccc(F)cc3)[C@H]3COC(=O)[C@H]23)OCO4)cc(OC)c1O | 57 | 0.5 | > 100
CCOC(=O)c1ccccc1N[C@@H]1c2cc3c(cc2[C@@H](c2cc(OC)c(O)c(OC)c2)[C@H]2C(=O)OC[C@@H]21)OCO3 | 4 | 1 | > 100
COc1cc([C@@H]2c3cc4c(cc3[C@@H](Nc3ccc(N5CCOCC5)cc3)[C@H]3COC(=O)[C@H]23)OCO4)cc(OC)c1O | 140 | 0.66 | 10
COc1cc([C@@H]2c3cc4c(cc3[C@@H](Nc3cccc(C(C)=O)c3)[C@H]3COC(=O)[C@H]23)OCO4)cc(OC)c1O | 150 | 1.7 | 50
COc1cc([C@@H]2c3cc4c(cc3[C@@H](NCCO)[C@H]3COC(=O)[C@H]23)OCO4)cc(OC)c1O | 121 | 1.6 | –
CCOC(=O)c1ccc(N[C@@H]2c3cc4c(cc3[C@@H](c3cc(OC)c(O)c(OC)c3)[C@H]3C(=O)OC[C@@H]32)OCO4)cc1 | 207 | 0.84 | 5
COc1cc([C@@H]2c3cc4c(cc3[C@@H](Nc3cc(C(F)(F)F)cc(C(F)(F)F)c3)[C@H]3COC(=O)[C@H]23)OCO4)cc(OC)c1O | 21 | 3.4 | > 100
COc1cccc(N[C@@H]2c3cc4c(cc3[C@@H](c3cc(OC)c(O)c(OC)c3)[C@H]3C(=O)OC[C@@H]32)OCO4)c1 | 104 | 3.8 | 25
